Measurements reported in US10752640B2, “Compounds active towards bromodomains” (NUEVOLUTION A/S, priority 2014, dated 2020).

Target: BRD4 protein (Homo sapiens, UniProt O60885)
Assay: FRET assay, half maximal inhibitory concentration (IC50)
Type: binding
Conditions: BRD4 protein 50 nM, Biotin-H4KAc4 peptide 12.5 nM; List of Classification
Procedure, shortened: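 Acetylated histone H4 peptide binding (biotin-H4KAc4, 12.5 nM final) to BRD4 (50 nM final) detected by TR-FRET between streptavidin cryptate (2.4 nM) and GST-XL665 antibody (10 nM) in KF/BSA. Buffer: HEPES pH 7.5, NaCl, CHAPS. Compound dilutions from 50 μM in 12.5% DMSO were preincubated with protein for 30 min. Variable-slope IC50.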

Row | SMILES | IC50 [nM]
1 | CN1C(=O)CCc2cc(NC(=O)c3cccnc3N3CCOCC3)ccc21 [Compound-131, N-(1-methyl-2-oxo-3,4-dihydroquinolin-6-yl)-2-morpholino-pyridine-3-carboxamide] | 1000 to 10000
2 | Cc1cc(O)nc2ccc(NC(=O)c3cccnc3N3CCC(F)C3)cc12 (centres unmarked) [Compound-132, 2-(3-fluoropyrrolidin-1-yl)-N-(2-hydroxy-4-methyl-6-quinolyl)pyridine-3-carboxamide] | < 200
3 | Cc1cc(O)nc2ccc(NC(=O)c3cccnc3N3CCC(F)(F)C3)cc12 [Compound-133, 2-(3,3-difluoropyrrolidin-1-yl)-N-(2-hydroxy-4-methyl-6-quinolyl)pyridine-3-carboxamide] | < 200
4 | Cc1cc(O)nc2ccc(NC(=O)c3ccc(C(F)(F)F)nc3N3CCCC3)cc12 [Compound-134, N-(2-hydroxy-4-methyl-6-quinolyl)-2-pyrrolidin-1-yl-6-(trifluoromethyl)pyridine-3-carboxamide] | < 200
5 | Cc1cc(O)nc2ccc(NC(=O)c3ccc(C(F)(F)F)nc3N3CCOCC3)cc12 [Compound-135, N-(2-hydroxy-4-methyl-6-quinolyl)-2-morpholino-6-(trifluoromethyl)pyridine-3-carboxamide] | 200 to 500
6 | Cc1cc(O)nc2c(C)cc(NC(=O)c3cccnc3N3CCOCC3)cc12 [Compound-136, N-(2-hydroxy-4,8-dimethyl-6-quinolyl)-2-morpholino-pyridine-3-carboxamide] | < 200
7 | Cc1cc2nc(O)cc(C)c2cc1NC(=O)c1c(C)ccnc1N1CCOCC1 [Compound-137, N-(2-hydroxy-4,7-dimethyl-6-quinolyl)-4-methyl-2-morpholino-pyridine-3-carboxamide] | 1000 to 10000
8 | Cc1ccnc(N2CCOCC2)c1C(=O)Nc1ccc2nc(O)cc(C)c2c1 [Compound-138, N-(2-hydroxy-4-methyl-6-quinolyl)-4-methyl-2-morpholino-pyridine-3-carboxamide] | 1000 to 10000
9 | Cc1cc(O)nc2ccc(NC(=O)c3cc(C(F)(F)F)cnc3N3CCOCC3)cc12 [Compound-139, N-(2-hydroxy-4-methyl-6-quinolyl)-2-morpholino-5-(trifluoromethyl)pyridine-3-carboxamide] | < 200
10 | Cc1cc(O)nc2ccc(NC(=O)c3cc(Cl)cnc3N3CCOCC3)cc12 [Compound-140, 5-chloro-N-(2-hydroxy-4-methyl-6-quinolyl)-2-morpholino-pyridine-3-carboxamide] | < 200
11 | Cc1cc(O)nc2ccc(NC(=O)c3cccnc3N3CCOC4CNCC43)cc12 (centres unmarked) [Compound-142, 2-(3,4a,5,6,7,7a-hexahydro-2H-pyrrolo[3,4-b][1,4]oxazin-4-yl)-N-(2-hydroxy-4-methyl-6-quinolyl)pyridine-3-carboxamide] | < 200
12 | Cc1cc(O)nc2ccc(NC(=O)c3cccnc3N3CCOC4COCC43)cc12 (centres unmarked) [Compound-143, 2-(2,3,4a,5,7,7a-hexahydrofuro[3,4-b][1,4]oxazin-4-yl)-N-(2-hydroxy-4-methyl-6-quinolyl)pyridine-3-carboxamide] | 500 to 1000
13 | Cc1cc(O)nc2ccc(NC(=O)c3cccnc3N3C4CCC3COC4)cc12 [Compound-144, N-(2-hydroxy-4-methyl-6-quinolyl)-2-(3-oxa-8-azabicyclo[3.2.1]octan-8-yl)pyridine-3-carboxamide] | < 200
14 | Cc1cc(O)nc2ccc(NC(=O)c3cccnc3N3CCOCC3CO)cc12 (centres unmarked) [Compound-145, 2-[3-(hydroxymethyl)morpholin-4-yl]-N-(2-hydroxy-4-methyl-6-quinolyl)pyridine-3-carboxamide] | < 200
15 | Cc1cc(O)nc2ccc(NC(=O)c3cccnc3N3CCC(F)(F)CC3)cc12 [Compound-146, 2-(4,4-difluoro-1-piperidyl)-N-(2-hydroxy-4-methyl-6-quinolyl)pyridine-3-carboxamide] | < 200
16 | Cc1cc(O)nc2ccc(NC(=O)c3cccnc3N3CCn4ccnc4C3)cc12 [Compound-147, 2-(6,8-dihydro-5H-imidazo[1,2-a]pyrazin-7-yl)-N-(2-hydroxy-4-methyl-6-quinolyl)pyridine-3-carboxamide] | 500 to 1000
17 | COc1cc(O)nc2ccc(NC(=O)c3cccnc3N3CCOCC3)cc12 [Compound-149, N-(2-hydroxy-4-methoxy-6-quinolyl)-2-morpholino-pyridine-3-carboxamide] | 500 to 1000
18 | Cc1cc(O)nc2ccc(NC(=O)c3cc(-c4cnoc4)ccc3N3CCOCC3)cc12 [Compound-151, N-(2-hydroxy-4-methyl-6-quinolyl)-5-isoxazol-4-yl-2-morpholino-benzamide] | < 200
19 | Cc1noc(C)c1-c1ccc(N2CCOCC2)c(C(=O)Nc2ccc3nc(O)cc(C)c3c2)c1 [Compound-152, 5-(3,5-dimethylisoxazol-4-yl)-N-(2-hydroxy-4-methyl-6-quinolyl)-2-morpholino-benzamide] | < 200
20 | Cc1cc2nc(O)cc(C)c2cc1NC(=O)c1cc(-c2cnn(C)c2)ccc1N1CCOCC1 [Compound-154, N-(2-hydroxy-4,7-dimethyl-6-quinolyl)-5-(1-methylpyrazol-4-yl)-2-morpholino-benzamide] | < 200
21 | Cc1cc2nc(O)cc(C)c2cc1NC(=O)c1cc(-c2c(C)noc2C)ccc1N1CCOCC1 [Compound-155, 5-(3,5-dimethylisoxazol-4-yl)-N-(2-hydroxy-4,7-dimethyl-6-quinolyl)-2-morpholino-benzamide] | < 200
22 | Cc1cc(O)nc2c(C)cc(NC(=O)c3cc(-c4ccoc4)ccc3N3CCOCC3)cc12 [Compound-157, 5-(3-furyl)-N-(2-hydroxy-4,8-dimethyl-6-quinolyl)-2-morpholino-benzamide] | < 200
23 | COc1cc2nc(O)cc(C)c2cc1NC(=O)c1cc(-c2cnn(C)c2)ccc1N1CCOCC1 [Compound-159, N-(2-hydroxy-7-methoxy-4-methyl-6-quinolyl)-5-(1-methylpyrazol-4-yl)-2-morpholino-benzamide] | < 200
24 | COc1cc2nc(O)cc(C)c2cc1NC(=O)c1cc(-c2ccoc2)ccc1N1CCOCC1 [Compound-160, 5-(3-furyl)-N-(2-hydroxy-7-methoxy-4-methyl-6-quinolyl)-2-morpholino-benzamide] | 500 to 1000
25 | COc1cc2nc(O)cc(C)c2cc1NC(=O)c1cc(-c2c(C)noc2C)ccc1N1CCOCC1 [Compound-161, 5-(3,5-dimethylisoxazol-4-yl)-N-(2-hydroxy-7-methoxy-4-methyl-6-quinolyl)-2-morpholino-benzamide] | < 200
26 | Cc1cc2nc(O)cc(C)c2cc1NC(=O)c1cc(-c2cnoc2)ccc1N1CCOCC1 [Compound-163, N-(2-hydroxy-4,7-dimethyl-6-quinolyl)-5-isoxazol-4-yl-2-morpholino-benzamide] | < 200
27 | Cc1cc2[nH]c(=O)cc(C)c2cc1NC(=O)c1cc(C#N)ncc1N1CCOCC1 [Compound-164, 2-cyano-N-(4,7-dimethyl-2-oxo-1H-quinolin-6-yl)-5-morpholino-pyridine-4-carboxamide] | < 200
28 | CC(C)c1cc(O)nc2ccc(NC(=O)c3cc(S(=O)(=O)N(C)C)ccc3N3CCCC3)cc12 [Compound-165, 5-(dimethylsulfamoyl)-N-(2-hydroxy-4-isopropyl-6-quinolyl)-2-pyrrolidin-1-yl-benzamide] | < 200
29 | Cc1cc(O)nc2ccc(NC(=O)c3cc(-c4cnn(C)c4)ccc3N3CCOCC3)cc12 [Compound-166, N-(2-hydroxy-4-methyl-6-quinolyl)-5-(1-methylpyrazol-4-yl)-2-morpholino-benzamide] | < 200
